Assay type in all cases: cell-based
One data set relates to U138MG cells. The data set can be described thus: Cell viability with 2DG alone or combined with Rocaglamide (Example 4, FIG. 3). Particulars: Mus musculus, U138-MG, 4 mM 2DG alone. The method, then:
(§1) FIG. 3: Cell viability of […] cells treated with 2DG (1 mM or 4 mM) and of PBMCs treated with 2DG (1 mM) alone or in combination with Rocaglamide (0.1 μM, 0.025 μM, 0.01 μM).
In order to evaluate the potential of Rocaglamide to reduce the dose of 2DG while at the same time maintaining its antitumoral effect, combinations of different doses of 2DG with Rocaglamide were evaluated in U138MG cells ([…]). The cell-killing effect of the combination of Rocaglamide and 2DG was then compared with the effect of 2DG alone.

A further data set is described as follows: in vitro. As to conditions: human. The method, then:
as §1

For the next data set, the system named is SMA560. Kind of data set: MTT cell viability assay, tumor cell line (Example 1). Particulars: Mus musculus, 48 h, relative to untreated cells, read-out: Cell viability after treatment. The method, then: (§2) The MTT (MethylThiazol Tetrazolium) assay was used to determine cell viability. The MTT assay is a colorimetric method for measuring the activity of cellular enzymes that reduce the tetrazolium dye, MTT, to its insoluble formazan, giving a purple color. This method was used in the present experiments to reflect the number of viable cells present and to measure cytotoxicity (loss of viable cells).
(§3) Cells were plated in flat-bottom 96-well plates at a cell number of 10,000 in 100 p of medium per well. RPMI 1640 (Roswell Park Memorial Institute, Gibco, City, State) supplemented with fetal bovine serum (10%) and penicillin/streptomycin (1%) medium was used for cell culturing and plating. After plating, cells were incubated at 37° C. in an incubator at 5% CO2 concentration for 24 hours before the beginning of treatment. After that, when cells became adherent, the medium was removed and 2-DG and rocaglamide were added to the cells at a concentration of 1 mM and 0.1 μM, respectively. After 48 hours of incubation, 20 μl of MTT reagent was added to each well. Cells were incubated for 1 hour at 37° C. before colorimetric assessment
(§4) To determine the amount of viable cells after the treatment, the absorption was measured at a wave length of 485 nm with the help of an ELISA reader device (TECAN GENios, Austria). All measurements were carried out in quadruplicate. Mean values and standard deviations were calculated from the measured values after background subtraction. As background, absorption was measured in wells containing medium alone.
On the technique in general: Formazan colour is commonly taken as a measure of viable cells.

For a further data set, the system named is RKO. Described as above. As to conditions: Homo sapiens, 48 h, relative to untreated cells, read-out: Cell viability after treatment. The method, then: as §2, §3, §4
A further data set has as its system LNT229. The description is as above. Particulars: 48 h, relative to untreated cells, read-out: Cell viability after treatment. The method, then: as §2, §3, §4
The next data set has as its system NCH89. The description is as above. As to conditions: Homo sapiens, 48 h, relative to untreated cells, read-out: Cell viability after treatment. The method, then: as §2, §3, §4
Another data set deals with NCH82. Described as above. As to conditions: Homo sapiens, 48 h, relative to untreated cells, read-out: Cell viability after treatment. The method, then:
as §2, §3, §4

In another data set the test system is HCT116. The data set is described as above. Particulars: Homo sapiens, 48 h, relative to untreated cells, read-out: Cell viability after treatment. The method, then: as §2, §3, §4
Another data set concerns K073. The data set is described as above. As to conditions: 48 h, relative to untreated cells, read-out: Cell viability after treatment. The method, then: as §2, §3, §4
For the next data set, the system named is U373. The description is as above. Particulars: Homo sapiens, U373 MG, 48 h, relative to untreated cells, read-out: Cell viability after treatment. The method, then:
as §2, §3, §4

A further data set deals with SW480. Described as above. Particulars: Homo sapiens, 48 h, relative to untreated cells, read-out: Cell viability after treatment. The method, then: as §2, §3, §4
The subject of the next data set is GL261. The data set is described as above. Particulars: Mus musculus, 48 h, relative to untreated cells, read-out: Cell viability after treatment. The method, then:
as §2, §3, §4

In a further data set the test system is HT29. Described as above. As to conditions: Homo sapiens, 48 h, relative to untreated cells, read-out: Cell viability after treatment. The method, then: as §2, §3, §4
A further data set concerns C3. The description is as above. As to conditions: 48 h, relative to untreated cells, read-out: Cell viability after treatment. The method, then: as §2, §3, §4
The next data set relates to H146. Described as above. Particulars: Homo sapiens, 48 h, relative to untreated cells, read-out: Cell viability after treatment. The method, then: as §2, §3, §4
A further data set has as its system tumor cell lines. The data set can be described thus: MTT cell viability assay, number of responding cell lines (Example 1). Particulars: 2-DG 1 mM alone; 48 h. The method, then: as §2
Cells were plated in flat-bottom 96-well plates at a cell number of 10,000 in 100 p of medium per well. RPMI 1640 (Roswell Park Memorial Institute, Gibco, City, State) supplemented with fetal bovine serum (10%) and penicillin/streptomycin (1%) medium was used for cell culturing and plating. After plating, cells were incubated at 37° C. in an incubator at 5% CO2 concentration for 24 hours before the beginning of treatment. […]
To determine the amount of viable cells after the treatment, the absorption was measured at a wave length of 485 nm with the help of an ELISA reader device (TECAN GENios, Austria). […] Mean values and standard deviations were calculated from the measured values after background subtraction. As background, absorption was measured in wells containing medium alone.
2-DG treatment at a concentration of 1 mM induced a significant response (reduction of viability to less than 80% of the untreated cells) in 9 out of 15 cell lines analyzed.

The subject of a further data set is HT29 cells. The data set can be described thus: MTT assay, IC50 of flavaglines with and without 2DG (Example 2). As to conditions: HT29 (FIG. 1B); flavagline 10-100 nM with 1 mM 2DG versus flavagline alone; 48 h. An excerpt:
(§5) FIG. 1: Determination of IC50 of Rocaglamide and FL3. Treatment schemes are illustrated by different line patterns explained on the right side of each graphic. Solid lines with squares represent treatment with Rocaglamide, dotted lines with circles represent treatment with Rocaglamide and 2DG in combination, dotted lines with triangles represent treatment with FL3, and dotted lines with rhombus represent treatment with FL3 and 2DG in combination. X axis represents treatment doses of flavaglines (Rocaglamide or FL3), y axis represents relative cell viability (determined by MT assay) in %; cells not treated with flavaglines are used as a reference (corresponding to 100% viability). A. HCT116 cells. B. HT29 cells. C: normal human PBMCs.
(§6) The MTT (MethylThiazol Tetrazolium) assay was the same as in Example 1. Colorectal cancer cells (HCT116 and HT29) as well as normal human PBMCs were plated in flat-bottom 96-well plates at a cell number of 10,000 and 100,000, respectively, in 100 μl of medium per well. […] (Roswell Park Memorial Institute, Gibco, Paisley, UK) supplemented with 10% fetal bovine serum and 1% penicillin/streptomycin (Gibco, N.Y., USA) medium was used for cell culturing and plating of tumor cells. Medium for PBMCs consisting of Iscove's modified DMEM (IMDM) supplemented by 10% human AB serum, 1% L-glutamin and 0,05% gentamycin was used for plating PBMCs. After plating, rocaglamide and FL3 were applied at five increasing concentrations (10, 25, 50, 75 and 100 nM) as single substances and in combination with 1 mM 2DG. Cells were then incubated with drugs in a CO2 chamber at 5% CO2 concentration (Memmert Incubator, Büchenbach, Germany) for 48 hours. Afterwards, 20 μl of MTT reagent (Promega, Madison, Wis., USA) were added to each well. Cells were incubated for 1 hour at 37° C. as above. To determine the amount of viable cells after the treatment the absorption was measured at a wave length of 485 nm in ELISA reader device (TECAN GENios, Salzburg, Austria). All measurements were carried out in quadruplicates.
(§7) Mean values and standard deviations were calculated from the measured values after background subtraction. As background, absorption was measured in wells containing only medium.

A further data set relates to HCT116 cells. The data set is described as above. As to conditions: HCT116 (FIG. 1A); flavagline 10-100 nM with 1 mM 2DG versus flavagline alone; 48 h.
Text: as §5, §6, §7

The subject of another data set is normal human PBMCs. The data set is described as above. Particulars: normal human PBMCs (FIG. 1C); flavagline 10-100 nM with 1 mM 2DG versus flavagline alone; 48 h.
Text: as §5, §6, §7

Molecules are shown by their SMILES.

On to `OC[C@H]1OC(O)C[C@@H](O)[C@@H]1O` (stereo partly drawn) [2DG, (4R,5S,6R)-6-(hydroxymethyl)oxane-2,4,5-triol], for which the viability (commonly a read-out of living cells in per cent, often relative to untreated cells) at 4000 µM in the data set with U138MG cells (U136MG cells, read-out: cell viability compared to the untreated control) worked out at 46%. In addition, the cytotoxicity at 4000 µM in the data set on U138MG cells (U138MG cells, read-out: reduction of cell viability compared to the untreated control) came out at 54%. In addition, the viability at 48 h, 1 mM in “in vitro” worked out at 81.7%. The viability at 1000 µM in the data set with SMA560 (SMA-560, 2DG 1 mM alone) stood at 102%; with RKO (2DG 1 mM alone), 118%; in the data set on LNT229 (2DG 1 mM alone), 113%; in the data set with NCH89 (2DG 1 mM alone) it was 83.7%; in the data set on NCH82 (2DG 1 mM alone) it was 68.3%; with HCT116 (HCT-116, 2DG 1 mM alone), 82%. Besides, the viability at 1000 µM with K073 (2DG 1 mM alone) worked out at 89.6%; with U373 (2DG 1 mM alone), 95.6%; with SW480 (2DG 1 mM alone), 70.8%; in the data set on GL261 (2DG 1 mM alone) it was 63.8%; in the data set on HT29 (HT-29, 2DG 1 mM alone), 87.5%; in the data set on C3 (2DG 1 mM alone), 103%. Besides, the viability at 1000 µM with H146 (NCI-H146, 2DG 1 mM alone) was determined as 90.5%. The “cell lines with significant response (reduction of viability to less than 80% of the untreated cells)” value in the data set with tumor cell lines was 9 out of 15.

Turning to `COc1cc(OC)c2c(c1)O[C@@]1(c3ccc(Br)cc3)[C@H](c3ccccc3)C[C@@H](O)[C@@]21O` [FL3, (1R,3S,3aR,8bS)-3a-(4-Bromophenyl)-6,8-dimethoxy-3-phenyl-2,3,3a,8b-tetrahydro-1H-cyclopenta[b]benzofuran-1,8b-diol], the “change of IC50 of the flavagline in combination with 2DG” value with HT29 cells and with HCT116 cells was “substantially reduced” each time. In the data set on normal human PBMCs, the “change of IC50 of the flavagline in the presence of 2DG” value was “increased”.

As for `COc1ccc([C@@]23Oc4cc(OC)cc(OC)c4[C@]2(O)[C@H](O)[C@H](C(=O)N(C)C)[C@H]3c2ccccc2)cc1` [Rocaglamide, (1R,2R,3S,3aR,8bS)-1,8b-dihydroxy-6,8-dimethoxy-3a-(4-methoxyphenyl)-N,N-dimethyl-3-phenyl-2,3-dihydro-1H-cyclopenta[b][1]benzofuran-2-carboxamide], the “change of IC50 of the flavagline in combination with 2DG” value in the data set on HT29 cells and in the data set on HCT116 cells was “substantially reduced” each time. Moreover, the “change of IC50 of the flavagline in the presence of 2DG” value in the data set on normal human PBMCs was “increased”. Moreover, the viability at 0.1 µM worked out at 92.8% with SMA560 (SMA-560, rocaglamide 0.1 μM alone); 42.9% with RKO (rocaglamide 0.1 μM alone); 100% with LNT229 (rocaglamide 0.1 μM alone); 56.6% in the data set on NCH89 (rocaglamide 0.1 μM alone); 63.2% with NCH82 (rocaglamide 0.1 μM alone); 14.8% in the data set with HCT116 (HCT-116, rocaglamide 0.1 μM alone). The viability at 0.1 µM in the data set with K073 (rocaglamide 0.1 μM alone) is 35.9%; in the data set with U373 (rocaglamide 0.1 μM alone), 76.4%; in the data set on SW480 (rocaglamide 0.1 μM alone), 59.5%; in the data set on GL261 (rocaglamide 0.1 μM alone) it was 58.2%; with HT29 (HT-29, rocaglamide 0.1 μM alone), 52.3%; in the data set on C3 (rocaglamide 0.1 μM alone), 45.3%. For the same molecule, the viability at 0.1 µM in the data set with H146 (NCI-H146, rocaglamide 0.1 μM alone) was determined as 47.3%.

These data come from patent US20180169123A1, “COMBINATION THERAPY WITH A FLAVAGLINE AND 2-DEOXYGLUCOSE” (Ruprecht-Karls-Universitat Heidelberg, priority 2015, published 2018).
